Reference: patent publication US11878965B2, “Inhibitors of peptidylarginine deiminases” (Gilead Sciences, Inc., priority 2020, dated 2024)
pIC50: −log10 of the molar value. One block for each compound: values may come before it.

Molecular target: human PAD4 (Homo sapiens (Human), UniProt Q9UM07)
Assay: In Vitro PAD4 BAEE Biochemical Assay
Settings: human PAD4, BAEE substrate; 5 nM PAD4, 2 mM calcium chloride, 3 mM BAEE; geometric mean of multiple experiments
Procedure, shortened: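 Recombinant human PAD4 (His-SUMO tag removed, E. coli-expressed), 5 nM, preincubated with compound and 2 mM CaCl2 30 min at 25 °C in MOPS pH 7.6 with DTT; 3 mM BAEE added for 2 h at 25 °C, EDTA stop. Released ammonia detected by o-phthalaldehyde/DTT fluorescence (ex 405, em 535 nm).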

human PAD4, sequence (Q9UM07 2-663): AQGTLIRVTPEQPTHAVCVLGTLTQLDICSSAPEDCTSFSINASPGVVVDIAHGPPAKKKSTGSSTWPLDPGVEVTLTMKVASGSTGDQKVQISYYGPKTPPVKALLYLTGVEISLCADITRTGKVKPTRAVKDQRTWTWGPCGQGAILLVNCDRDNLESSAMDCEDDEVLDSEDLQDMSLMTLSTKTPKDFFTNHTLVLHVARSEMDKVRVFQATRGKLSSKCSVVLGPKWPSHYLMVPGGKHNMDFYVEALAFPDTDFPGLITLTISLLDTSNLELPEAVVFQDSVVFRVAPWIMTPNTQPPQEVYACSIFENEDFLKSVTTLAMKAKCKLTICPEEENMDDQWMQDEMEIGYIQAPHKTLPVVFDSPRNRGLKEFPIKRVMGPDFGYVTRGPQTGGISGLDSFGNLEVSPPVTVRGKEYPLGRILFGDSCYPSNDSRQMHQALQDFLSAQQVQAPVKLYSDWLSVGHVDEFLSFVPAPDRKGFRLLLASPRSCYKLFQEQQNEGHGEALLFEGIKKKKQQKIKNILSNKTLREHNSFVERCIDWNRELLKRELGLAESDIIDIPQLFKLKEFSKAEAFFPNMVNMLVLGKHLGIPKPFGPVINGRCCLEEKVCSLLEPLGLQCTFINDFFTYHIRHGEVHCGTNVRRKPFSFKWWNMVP

SMILES: COc1cc(C(=O)N2CCC[C@@H](N)C2)cc2nc(-c3cc4ccc(N(CC(F)(F)F)S(C)(=O)=O)nc4n3CC3CC3)n(C)c12 [Example 16, (R)-N-(2-(5-(3-aminopiperidine-1-carbonyl)-7-methoxy-1-methyl-1H-benzo[d]imidazol-2-yl)-1-(cyclopropylmethyl)-1H-pyrrolo [2,3-b]pyridin-6-yl)-N-(2,2,2-trifluoroethyl) methanesulfonamide]
- pIC50: 6.50

SMILES: CCS(=O)(=O)N(C)c1ccc2cc(-c3nc4cc(C(=O)N5CCC[C@@H](N)C5)cc(OC)c4n3C)n(CC3CC3)c2n1 [Example 7, (R)-N-(2-(5-(3-aminopiperidine-1-carbonyl)-7-methoxy-1-methyl-1H-benzo[d]imidazol-2-yl)-1-(cyclopropylmethyl)-1H-pyrrolo [2,3-b]pyridin-6-yl)-N-methylethanesulfonamide]
- pIC50: 6.79

SMILES: COc1cc(C(=O)N2C[C@H](N)CCN2C)cc2nc(-c3cc4ccc(C(C)(C)O)nc4n3CC3CC3)n(C)c12 [Example 249, (R)-(5-amino-2-methyltetrahydropyridazin-1(2H)-yl)(2-(1-(cyclopropylmethyl)-6-(2-hydroxypropan-2-yl)-1H-pyrrolo[2,3-b]pyridin-2-yl)-7-methoxy-1-methyl-1H-benzo[d]imidazol-5-yl)methanone]
- pIC50: 6.64

SMILES: COc1cc(C(=O)N2[C@H]3CC[C@@H]2[C@H](N)C3)cc2nc(-c3cc4ccc([C@@H](C)NS(C)(=O)=O)nc4n3CC3CC3)n(C)c12 [Example 243, N-((R)-1-(2-(5-((1R,2R,4S)-2-amino-7-azabicyclo[2.2.1]heptane-7-carbonyl)-7-methoxy-1-methyl-1H-benzo[d]imidazol-2-yl)-1-(cyclopropylmethyl)-1H-pyrrolo[2,3-b]pyridin-6-yl)ethyl)methanesulfonamide]
- pIC50: 7.28

SMILES: COc1cc(C(=O)N2[C@H]3CC[C@@H]2[C@H](N)C3)cc2nc(-c3cc4ccc([C@@H](C)NC(=O)c5cnn(C)c5)nc4n3CC3CC3)n(C)c12 [Example 206, N-((R)-1-(2-(5-((1R,2R,4S)-2-amino-7-azabicyclo[2.2.1]heptane-7-carbonyl)-7-methoxy-1-methyl-1H-benzo[d]imidazol-2-yl)-1-(cyclopropylmethyl)-1H-pyrrolo[2,3-b]pyridin-6-yl)ethyl)-1-methyl-1H-pyrazole-4-carboxamide]
- pIC50: 7.34

SMILES: COc1cc(C(=O)N2C[C@@H]3C[C@@H](N)[C@H]2C3)cc2nc(-c3cc4ccc(N(C(F)F)S(C)(=O)=O)nc4n3CC3CC3)n(C)c12 [Example 82, N-(2-(5-((1R,4R,6R)-6-amino-2-azabicyclo[2.2.1]heptane-2-carbonyl)-7-methoxy-1-methyl-1H-benzo[d]imidazol-2-yl)-1-(cyclopropylmethyl)-1H-pyrrolo[2,3-b]pyridin-6-yl)-N-(difluoromethyl) methanesulfonamide]
- pIC50: 4.32

SMILES: CS(=O)(=O)N(c1ccc2cc(-c3nc4cc(C(=O)N5[C@H]6CC[C@@H]5[C@H](N)C6)ccc4n3C3CC3)n(CC3CC3)c2n1)C(F)F [Example 65, N-(2-(5-((1R,2R,4S)-2-amino-7-azabicyclo[2.2.1]heptane-7-carbonyl)-1-cyclopropyl-1H-benzo[d]imidazol-2-yl)-1-(cyclopropylmethyl)-1H-pyrrolo[2,3-b]pyridin-6-yl)-N-(difluoromethyl) methanesulfonamide]
- pIC50: 7.33

Further lines, results first:

- pIC50: 7.55
SMILES: C[C@H]1CCCS(=O)(=O)N1c1ccc2cc(-c3nc4cc(C(=O)N5CCC[C@@H](N)C5)ccc4n3C3CC3)n(CC3CC3)c2n1 [Example 99, ((R)-3-aminopiperidin-1-yl)(1-cyclopropyl-2-(1-(cyclopropylmethyl)-6-((S)-3-methyl-1,1-dioxido-1,2-thiazinan-2-yl)-1H-pyrrolo[2,3-b]pyridin-2-yl)-1H-benzo[d]imidazol-5-yl) methanone]

- pIC50: 7.23
SMILES: COc1cc(C(=O)N2CCC[C@@H](N)C2)cc2nc(-c3cc4ccc(N(C(C)C)S(C)(=O)=O)nc4n3CC3CC3)n(C)c12 [Example 6, (R)-N-(2-(5-(3-aminopiperidine-1-carbonyl)-7-methoxy-1-methyl-1H-benzo[d]imidazol-2-yl)-1-(cyclopropylmethyl)-1H-pyrrolo [2,3-b]pyridin-6-yl)-N-isopropylmethanesulfonamide]

- pIC50: 6.83
SMILES: COc1cc(C(=O)N2C[C@H](N)CCN2C)cc2nc(-c3cc4ccc([C@@H](C)NC(=O)[C@H](C)c5ccccc5)nc4n3CC3CC3)n(C)c12 [Example 164, (R)-N-((R)-1-(2-(5-((R)-5-amino-2-methylhexahydropyridazine-1-carbonyl)-7-methoxy-1-methyl-1H-benzo[d]imidazol-2-yl)-1-(cyclopropylmethyl)-1H-pyrrolo[2,3-b]pyridin-6-yl)ethyl)-2-phenylpropanamide]

- pIC50: 4.30
SMILES: COc1cc(C(=O)N2CCCC3(CCCCN3)C2)cc2nc(-c3cc4ccc(N(C(F)F)S(C)(=O)=O)nc4n3CC3CC3)n(C)c12 (stereo not drawn) [Example 68, N-(1-(cyclopropylmethyl)-2-(7-methoxy-1-methyl-5-(1,8-diazaspiro[5.5]undecane-8-carbonyl)-1H-benzo[d]imidazol-2-yl)-1H-pyrrolo[2,3-b]pyridin-6-yl)-N-(difluoromethyl) methanesulfonamide]

- pIC50: 6.95
SMILES: COc1cc(C(=O)N2C[C@H](N)CCN2C)cc2nc(-c3cc4ccc([C@@H](C)NC(=O)C5(CCF)CC5)nc4n3CC3CC3)n(C)c12 [Example 215, N-((R)-1-(2-(5-((R)-5-amino-2-methylhexahydropyridazine-1-carbonyl)-7-methoxy-1-methyl-1H-benzo[d]imidazol-2-yl)-1-(cyclopropylmethyl)-1H-pyrrolo[2,3-b]pyridin-6-yl)ethyl)-1-(2-fluoroethyl)cyclopropane-1-carboxamide]

- pIC50: 7.08
SMILES: COc1cc(C(=O)N2C[C@H](N)[C@@H]3CC[C@H]2C3)cc2nc(-c3cc4ccc([C@@H](C)NC(=O)C5CC(F)(F)C5)nc4n3CC3CC3)n(C)c12 [Example 228, N-((R)-1-(2-(5-((1S,4R,5R)-4-amino-2-azabicyclo[3.2.1]octane-2-carbonyl)-7-methoxy-1-methyl-1H-benzo[d]imidazol-2-yl)-1-(cyclopropylmethyl)-1H-pyrrolo[2,3-b]pyridin-6-yl)ethyl)-3,3-difluorocyclobutane-1-carboxamide]

- pIC50: 7.12
SMILES: COc1cc(C(=O)N2C[C@H](N)CCN2C)cc2nc(-c3cc4ccc([C@@H](C)NC(=O)Cc5ccccc5)nc4n3CC3CC3)n(C)c12 [Example 158, N-((R)-1-(2-(5-((R)-5-amino-2-methylhexahydropyridazine-1-carbonyl)-7-methoxy-1-methyl-1H-benzo[d]imidazol-2-yl)-1-(cyclopropylmethyl)-1H-pyrrolo[2,3-b]pyridin-6-yl)ethyl)-2-phenylacetamide]

- pIC50: 6.57
SMILES: COc1cc(C(=O)N2C[C@H](N)CC[C@@H]2C)cc2nc(-c3cc4ccc(-c5cccnc5S(C)(=O)=O)nc4n3CC3CC3)n(C)c12 [Example 265, ((2S,5R)-5-amino-2-methylpiperidin-1-yl)(2-(1-(cyclopropylmethyl)-6-(2-(methylsulfonyl)pyridin-3-yl)-1H-pyrrolo[2,3-b]pyridin-2-yl)-7-methoxy-1-methyl-1H-benzo[d]imidazol-5-yl)methanone]
